Results taken from ChEMBL document CHEMBL1122289.

Legend:
[1] = target: Estrogen receptor (Mus musculus) (UniProt O08537+P19785); assay: Relative binding affinity for estrogen receptor; assay type: protein assay
[2] = target: T1, Progesterone receptor (Oryctolagus cuniculus) (UniProt P06186); assay: Relative binding affinity for progesterone receptor
T1 sequence (whole entry): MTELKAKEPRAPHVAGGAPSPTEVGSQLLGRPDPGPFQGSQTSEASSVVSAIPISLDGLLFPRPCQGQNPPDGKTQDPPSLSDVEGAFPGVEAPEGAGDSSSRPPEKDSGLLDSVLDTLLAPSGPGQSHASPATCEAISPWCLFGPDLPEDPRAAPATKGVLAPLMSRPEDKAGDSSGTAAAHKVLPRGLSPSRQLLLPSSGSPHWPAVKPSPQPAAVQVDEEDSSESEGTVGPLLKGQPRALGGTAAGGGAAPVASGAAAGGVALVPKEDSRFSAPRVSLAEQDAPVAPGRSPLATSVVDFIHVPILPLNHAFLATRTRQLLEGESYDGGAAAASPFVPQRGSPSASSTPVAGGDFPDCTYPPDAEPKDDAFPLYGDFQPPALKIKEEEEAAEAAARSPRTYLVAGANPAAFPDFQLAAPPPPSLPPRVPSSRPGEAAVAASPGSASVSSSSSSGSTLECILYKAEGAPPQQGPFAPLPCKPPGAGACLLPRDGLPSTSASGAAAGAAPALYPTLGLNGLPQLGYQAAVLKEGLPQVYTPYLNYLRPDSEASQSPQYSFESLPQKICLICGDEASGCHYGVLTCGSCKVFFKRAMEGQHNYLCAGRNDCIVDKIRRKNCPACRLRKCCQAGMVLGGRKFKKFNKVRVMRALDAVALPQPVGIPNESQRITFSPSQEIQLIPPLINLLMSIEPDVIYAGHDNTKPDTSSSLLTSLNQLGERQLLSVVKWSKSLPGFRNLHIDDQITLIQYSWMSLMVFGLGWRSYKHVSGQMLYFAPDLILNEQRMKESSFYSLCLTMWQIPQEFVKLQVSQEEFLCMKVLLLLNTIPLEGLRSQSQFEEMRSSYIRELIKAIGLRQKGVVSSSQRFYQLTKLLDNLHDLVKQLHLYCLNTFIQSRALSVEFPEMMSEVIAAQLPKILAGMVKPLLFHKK

Chain of Estrogen receptor (Mus musculus) (O08537 whole entry, looked up): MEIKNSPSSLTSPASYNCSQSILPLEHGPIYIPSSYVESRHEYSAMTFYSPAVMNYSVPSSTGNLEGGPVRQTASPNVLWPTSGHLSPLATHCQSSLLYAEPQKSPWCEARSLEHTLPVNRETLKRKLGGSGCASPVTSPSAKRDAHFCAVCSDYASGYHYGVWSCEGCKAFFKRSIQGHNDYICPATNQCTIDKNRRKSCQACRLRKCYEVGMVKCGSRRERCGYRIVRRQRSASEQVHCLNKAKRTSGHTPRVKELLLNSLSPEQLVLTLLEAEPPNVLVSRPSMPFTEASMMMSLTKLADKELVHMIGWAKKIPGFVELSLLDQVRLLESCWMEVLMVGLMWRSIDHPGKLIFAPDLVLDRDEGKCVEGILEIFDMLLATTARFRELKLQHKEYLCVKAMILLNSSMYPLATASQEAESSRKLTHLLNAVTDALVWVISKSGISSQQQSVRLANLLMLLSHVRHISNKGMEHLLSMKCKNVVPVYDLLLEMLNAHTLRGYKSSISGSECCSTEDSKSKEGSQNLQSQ
Chain of Estrogen receptor (Mus musculus) (P19785 whole entry, looked up): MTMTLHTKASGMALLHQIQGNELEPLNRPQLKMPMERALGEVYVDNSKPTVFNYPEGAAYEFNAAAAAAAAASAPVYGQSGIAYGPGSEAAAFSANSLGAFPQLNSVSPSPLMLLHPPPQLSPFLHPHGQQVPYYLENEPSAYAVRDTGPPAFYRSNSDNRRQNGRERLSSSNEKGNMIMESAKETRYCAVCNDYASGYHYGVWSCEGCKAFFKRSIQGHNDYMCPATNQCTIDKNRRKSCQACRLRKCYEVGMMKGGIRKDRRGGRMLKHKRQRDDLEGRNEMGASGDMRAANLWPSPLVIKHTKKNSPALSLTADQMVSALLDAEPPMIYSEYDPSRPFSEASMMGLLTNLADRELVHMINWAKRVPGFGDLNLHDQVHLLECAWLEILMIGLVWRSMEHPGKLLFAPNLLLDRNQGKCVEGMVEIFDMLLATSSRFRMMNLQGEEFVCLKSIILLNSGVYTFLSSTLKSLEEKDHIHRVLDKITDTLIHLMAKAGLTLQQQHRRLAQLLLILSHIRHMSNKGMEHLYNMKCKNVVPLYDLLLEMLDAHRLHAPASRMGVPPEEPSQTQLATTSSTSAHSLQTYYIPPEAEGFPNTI

Row | SMILES | relative binding affinity (RBA) [1] | relative binding affinity (RBA) [2]
1 | CC(=O)[C@@]1([Se]c2ccccc2)CC[C@H]2[C@@H]3CCC4=CC(=O)CC[C@]4(C)[C@H]3CC[C@@]21C | < 0.1 | 2.1
2 | CC(=O)[C@H]1CC[C@H]2[C@@H]3CCC4=CC(=O)CC[C@]4(C)[C@H]3CC[C@]12C | < 0.1 | 100
3 | C[C@]12CC[C@H]3[C@@H](CCC4=CC(=O)CC[C@@]43C)[C@@H]1CC[C@@H]2C(=O)C[Se]c1ccccc1 | < 0.1 | 59
